Assays:
Format in all cases: cell-based
[1] = biological target: T1, serotonin transporter (Homo sapiens, UniProt P31645); assay: Serotonin reuptake inhibition in transporter-transfected HEK-293 cells ([3H]-5-HT); settings: for Triple reuptake inhibition (Ratio %) SERT: compound 1 μM, [3H]-5-HT, relative to control without compound (100%), lower = more inhibition; for IC50: concentration at which Ratio % is 50%, 6 concentrations 1 nM to 1 μM, read-out: Triple reuptake inhibition (IC50, μM) SERT
T1 construct: expressed in transfected cells; host or cells: HEK-293
Experimental: (§1) To evaluate the reuptake inhibitory effect on dopamine, the dopamine transporter cDNA was transfected using the HEK-293 cell line, and then sub-seeded in a 24 well plate the next day. After removing the medium, each compound of the Examples or Comparative Examples diluted to 1 μM in uptake buffer was added to a concentration of 200 μl/well and cultured at 37° C. for 15 minutes. 100 μl of uptake buffer containing 20-30 nM [3H]-DA was added and cultured at 37° C. for 5 minutes. The reaction solution was quickly removed and washed three times with 1 ml ice-cold uptake buffer. After dissolving the resultant in 1% SDS (0.5 ml), the degree of binding of radioisotope-labeled dopamine to the transporter was measured.
(§2) For norepinephrine (NE) and serotonin (5-HT), the degree of binding of radioisotope-labeled norepinephrine or serotonin to the transporter was measured in the same manner as above, except that cells transfected with NE or 5-HT transporter cDNA were used and [3H]-NE or [3H]-5-HT was used as a substrate.
(§3) In addition, when evaluating the reuptake inhibitory effect on dopamine, norepinephrine, and serotonin, the same method was performed without treating each compound of the Examples or Comparative Examples as a control, the degree of binding of radioisotope-labeled dopamine, norepinephrine, and serotonin to the transporter was measured, and by using this as a standard (100%), the triple reuptake inhibitory effect was evaluated as a relative ratio (Ratio %). That is, in the control group, the binding of dopamine, norepinephrine, and serotonin to transporters is not inhibited, but when each compound of the Examples is treated and thus the binding is inhibited, the Patio % value decreases.
In addition, in the case of the compound of Comparative Example 1, IC50 was obtained by the same method as the Example Compounds.

[2] = biological target: T2, dopamine transporter (Homo sapiens, UniProt Q01959); assay: Dopamine reuptake inhibition in transporter-transfected HEK-293 cells ([3H]-DA); settings: for Triple reuptake inhibition (Ratio %) DAT: compound 1 μM, 20-30 nM [3H]-DA, relative to control without compound (100%), lower = more inhibition; for IC50: concentration at which Ratio % is 50%, 6 concentrations 1 nM to 1 μM, read-out: Triple reuptake inhibition (IC50, μM) DAT
T2 construct: expressed in transfected cells; host or cells: HEK-293
Experimental: as §1, §3
(§4) Meanwhile, the Patio % values were compared, and in the case of the compounds of Examples 6, 9, 10, 19, 20, 22, 24, 28, 30, 31, 32, 33, 35, 41, 42, 48, 49, 51, 55, 56, 59, 61, 63, 64, 65, 66, 74 and 76 with excellent reuptake inhibitory effects on dopamine, norepinephrine and serotonin, the concentration at which the Ratio % is 50% was calculated using a total of 6 concentrations (1 nM, 5 nM, 10 nM, 50 nM, 100 nM, and 1 μM) and expressed as IC50. In addition, in the case of the compound of Comparative Example 1, IC50 was obtained by the same method as the Example Compounds.

[3] = biological target: T3, norepinephrine transporter (Homo sapiens, UniProt P23975); assay: Norepinephrine reuptake inhibition in transporter-transfected HEK-293 cells ([3H]-NE); settings: for Triple reuptake inhibition (Ratio %) NET: compound 1 μM, [3H]-NE, relative to control without compound (100%), lower = more inhibition; for IC50: concentration at which Ratio % is 50%, 6 concentrations 1 nM to 1 μM, read-out: Triple reuptake inhibition (IC50, μM) NET
T3 construct: expressed in transfected cells; host or cells: HEK-293
Experimental: as §1, §2, §3, §4

T2 sequence (Q01959 whole entry): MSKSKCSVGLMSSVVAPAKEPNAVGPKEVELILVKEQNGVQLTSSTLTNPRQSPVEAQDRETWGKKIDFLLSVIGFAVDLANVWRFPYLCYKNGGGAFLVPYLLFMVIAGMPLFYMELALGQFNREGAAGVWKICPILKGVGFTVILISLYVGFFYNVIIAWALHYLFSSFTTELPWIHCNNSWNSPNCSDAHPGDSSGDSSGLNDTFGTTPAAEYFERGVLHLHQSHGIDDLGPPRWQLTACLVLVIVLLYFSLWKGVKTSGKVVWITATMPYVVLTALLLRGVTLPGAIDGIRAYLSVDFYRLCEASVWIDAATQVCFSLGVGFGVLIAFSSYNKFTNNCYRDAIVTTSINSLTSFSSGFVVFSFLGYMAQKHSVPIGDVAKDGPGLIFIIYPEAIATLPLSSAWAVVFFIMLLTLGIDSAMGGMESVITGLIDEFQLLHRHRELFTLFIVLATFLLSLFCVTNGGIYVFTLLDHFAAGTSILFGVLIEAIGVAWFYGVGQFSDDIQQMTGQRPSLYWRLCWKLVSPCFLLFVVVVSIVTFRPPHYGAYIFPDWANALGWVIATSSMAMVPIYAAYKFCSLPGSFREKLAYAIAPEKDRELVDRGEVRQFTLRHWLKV
T1 sequence (P31645 whole entry): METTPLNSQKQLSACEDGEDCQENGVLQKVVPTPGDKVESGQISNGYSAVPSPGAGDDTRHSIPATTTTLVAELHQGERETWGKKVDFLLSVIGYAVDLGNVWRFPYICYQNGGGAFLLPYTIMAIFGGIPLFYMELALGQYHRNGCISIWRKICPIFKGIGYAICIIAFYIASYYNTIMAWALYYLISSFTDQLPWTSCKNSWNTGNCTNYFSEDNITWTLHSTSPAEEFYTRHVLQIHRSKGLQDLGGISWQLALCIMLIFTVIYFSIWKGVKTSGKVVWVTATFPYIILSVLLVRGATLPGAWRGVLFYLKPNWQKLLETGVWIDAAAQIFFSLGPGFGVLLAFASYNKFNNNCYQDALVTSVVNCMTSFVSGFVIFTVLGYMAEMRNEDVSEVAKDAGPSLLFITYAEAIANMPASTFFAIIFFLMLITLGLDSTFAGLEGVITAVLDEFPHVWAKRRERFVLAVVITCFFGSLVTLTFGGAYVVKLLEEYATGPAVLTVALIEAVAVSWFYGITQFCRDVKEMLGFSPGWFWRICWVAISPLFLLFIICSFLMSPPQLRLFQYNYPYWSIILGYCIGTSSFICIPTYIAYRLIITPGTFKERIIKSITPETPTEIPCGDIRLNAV
T3 sequence (P23975 whole entry, species assumed): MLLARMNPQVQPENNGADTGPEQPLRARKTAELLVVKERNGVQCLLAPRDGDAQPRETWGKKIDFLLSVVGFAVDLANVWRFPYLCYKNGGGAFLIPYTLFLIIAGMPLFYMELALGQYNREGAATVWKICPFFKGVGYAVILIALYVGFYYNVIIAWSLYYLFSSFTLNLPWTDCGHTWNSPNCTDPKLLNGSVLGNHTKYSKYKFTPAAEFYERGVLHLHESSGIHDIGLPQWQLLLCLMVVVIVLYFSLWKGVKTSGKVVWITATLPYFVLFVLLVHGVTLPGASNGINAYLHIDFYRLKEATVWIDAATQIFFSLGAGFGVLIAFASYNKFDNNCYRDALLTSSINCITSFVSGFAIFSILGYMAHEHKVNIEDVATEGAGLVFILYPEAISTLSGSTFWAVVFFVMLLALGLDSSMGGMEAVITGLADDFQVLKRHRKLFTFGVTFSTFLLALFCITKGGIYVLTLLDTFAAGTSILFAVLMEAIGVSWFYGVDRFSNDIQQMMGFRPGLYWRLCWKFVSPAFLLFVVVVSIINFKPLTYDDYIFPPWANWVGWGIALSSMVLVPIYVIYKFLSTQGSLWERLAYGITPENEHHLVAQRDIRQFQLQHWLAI

SMILES	Triple reuptake inhibition (Ratio %) SERT [1]	IC50 [1]	Triple reuptake inhibition (Ratio %) DAT [2]	IC50 [2]	Triple reuptake inhibition (Ratio %) NET [3]	IC50 [3]
O=C(NCCN1CCC(Cc2ccccc2)CC1)c1cc2cc(F)ccc2[nH]1 [Example 49]	62.50%	1.47 µM	24.67%	0.138 µM	26.73%	0.561 µM
O=C(NCC(=O)N1CCC(Cc2ccccc2)CC1)c1cc2ccccc2[nH]1 [Example 50, N-(2-(4-benzylpiperidin-1-yl)-2-oxoethyl)-1H-indol-2-carboxamide]	100.83%	–	108.32%	–	93.21%	–
O=C(NCCN1CCC(Cc2ccc(Cl)c(Cl)c2)CC1)c1cc2cc(F)ccc2[nH]1 [Example 51, N-(2-(4-(3,4-dichlorobenzyl)piperidin-1-yl)ethyl)-5-fluoro-1H-indol-2-carboxamide]	27.71%	0.331 µM	41.61%	0.636 µM	83.07%	–
O=C(NCCn1ccc(-c2ccc(F)cn2)n1)c1cc2ccccc2[nH]1 [Example 52, N-(2-(3-(5-fluoropyridin-2-yl)-1H-pyrazol-1-yl)ethyl)-1H-indol-2-carboxamide]	93.19%	–	85.39%	–	82.74%	–
O=C(NC1(CN2CCC(Cc3ccccc3)CC2)CC1)c1cc2ccccc2[nH]1 [Example 53, N-(1-((4-benzylpiperidin-1-yl)methyl)cyclopropyl)-1H-indol-2-carboxamide]	108.82%	–	86.48%	–	69.01%	–
O=C(NCCNCc1ccc2ccccc2c1)c1cc2ccccc2[nH]1 [Example 54, N-(2-((naphthalen-2-ylmethyl)amino)ethyl)-1H-indol-2-carboxamide]	84.69%	–	79.32%	–	92.95%	–
COc1ccc2[nH]c(C(=O)NCCN3CCC(Cc4ccccc4)CC3)nc2c1 [Example 59, N-(2-(4-benzylpiperidin-1-yl)ethyl)-5-methoxy-1H-benzo[d]imidazol-2-carboxamide]	45.80%	0.198 µM	17.60%	0.198 µM	43.43%	0.257 µM
O=C(NCCN1CCC(Cc2ccccc2)CC1)c1nc2cc(F)ccc2s1 [Example 60, N-(2-(4-benzylpiperidin-1-yl)ethyl)-5-fluorobenzo(d)thiazol-2-carboxamide]	53.40%	–	68.95%	–	50.81%	–
O=C(N[C@@H]1CC[C@@H](c2ccc(Cl)c(Cl)c2)c2ccccc21)c1cc2ccccc2[nH]1 [Example 62, N-((1R,4S)-4-(3,4-dichlorophenyl)-1,2,3,4-tetrahydronaphthalen-1-yl)-1H-indol-2-carboxamide]	94.51%	–	79.43%	–	144.33%	–
O=C(NCCN1CCC(Cc2ccccc2)CC1)c1cc2cc(O)c(O)cc2[nH]1 [Example 63, N-(2-(4-benzylpiperidin-1-yl)ethyl)-5,6-dihydroxy-1H-indol-2-carboxamide]	38.25%	0.369 µM	13.34%	0.087 µM	48.43%	0.092 µM
O=C(NCCN1CCC(Cc2ccccc2)CC1)c1nc2cc(O)ccc2[nH]1 [Example 64, N-(2-(4-benzylpiperidin-1-yl)ethyl)-5-hydroxy-1H-benzo[d]imidazol-2-carboxamide]	47.72%	0.237 µM	22.84%	0.362 µM	57.21%	0.543 µM
O=C(NCCN1CCC(Cc2ccc(Cl)c(Cl)c2)CC1)c1cc2cc(O)c(O)cc2[nH]1 [Example 65, N-(2-(4-(3,4-dichlorobenzyl)piperidin-1-yl)ethyl)-5,6-dihydroxy-1H-indol-2-carboxamide]	10.79%	0.044 µM	7.57%	0.049 µM	73.83%	5.73 µM
CCCCOc1ccc2[nH]c(C(=O)NCCN3CCC(Cc4ccccc4)CC3)cc2c1 [Example 67, N-(2-(4-benzylpiperidin-1-yl)ethyl)-5-butoxy-1H-indol-2-carboxamide]	53.46%	–	56.05%	–	92.60%	–
CN(CCNC(=O)c1cc2ccccc2[nH]1)Cc1ccc2ccccc2c1 [Example 68, N-(2-(methyl(napthalen-2-ylmethyl)amino)ethyl)-1H-indol-2-carboxamide]	87.07%	–	90.63%	–	100.99%	–
CC1(C(=O)NCCN2CCC(Cc3ccccc3)CC2)CC1 [Example 70, N-(2-(4-benzylpiperidine-1-yl)ethyl)-1-methylcyclopropanecarboxamide]	102.65%	–	107.49%	–	116.85%	–

The next lines start with the values.

Triple reuptake inhibition (Ratio %) SERT [1]	IC50 [1]	Triple reuptake inhibition (Ratio %) DAT [2]	IC50 [2]	Triple reuptake inhibition (Ratio %) NET [3]	IC50 [3]	SMILES
53.01%	3.01 µM	39.32%	2.64 µM	57.47%	2.48 µM	O=C(NCCN1CCC(Cc2ccccc2)CC1)c1nc2ccccc2s1 [Example 55, N-(2-(4-benzylpiperidin-1-yl)ethyl)benzo[d]thiazol-2-carboxamide]
76.79%	–	37.06%	1.48 µM	81.84%	–	O=C(NCCN1CCC(Cc2ccccc2)CC1)c1cc2cccnc2[nH]1 [Example 56, N-(2-(4-benzylpiperidin-1-yl)ethyl)-1H-pyrrolol[2,3-b]pyridin-2-carboxamide]
77.95%	–	60.52%	–	124.77%	–	O=C(NCCN1CCC(Cc2ccccc2)CC1)C1Cc2ccccc2N1 (stereo not drawn) [Example 57, N-(2-(4-benzylpiperidin-1-yl)ethyl) indolin-2-carboxamide]
105.84%	–	66.26%	–	82.39%	–	O=C(NCCN1CCC(Cc2ccccc2)CC1)[C@H]1Cc2ccccc2N1 [Example 58, (R)—N-(2-(4-benzylpiperidin-1-yl)ethyl)indolin-2-carboxamide]
62.21%	2.28 µM	32.78%	0.97 µM	73.75%	3.17 µM	O=C(NCCN1CCC(Cc2ccccc2)CC1)c1nc2ccccc2[nH]1 [Example 61, N-(2-(4-benzylpiperidin-1-yl)ethyl)-1H-benzo[d]imidazol-2-carboxamide]
113.80%	–	92.83%	–	86.02%	–	O=C(NCCN1CCC(Cc2ccccc2)CC1)C1CC1 [Example 69, N-(2-(4-benzylpiperidin-1-yl)ethyl)cyclopropanecarboxamide]
67.98%	–	117.41%	–	105.84%	–	O=C(NCCN1CCC(Cc2ccccc2)CC1)c1ccccn1 [Example 71, N-(2-(4-benzylpiperidin-1-yl)ethyl)picolinamide]

— patent US20240018119A1, “CARBOXAMIDE DERIVATIVE AND PHARMACEUTICAL COMPOSITION COMPRISING SAME AS ACTIVE INGREDIENT FOR PREVENTING OR TREATING MENTAL ILLNESS” (DAEGU-GYEONGBUK MEDICAL INNOVATION FOUNDATION, priority 2020, published 2024)
